This passage reports IC50 results from patent US20060035938A1, “2-Pyridone derivatives as inhibitors of neutrophile elastase” (priority 2002, published 2006).

SMILES strings stand for the structures.

In the experiment the target is T1, Human Neutrophil Elastase (HNE) (Homo sapiens, UniProt P08246).
T1 construct: Human Neutrophil Elastase (HNE) purified from serum; purchased Calbiochem 324681; host or cells: purified from human serum (so in the source); not recombinant
T1 sequence (P08246 30-267): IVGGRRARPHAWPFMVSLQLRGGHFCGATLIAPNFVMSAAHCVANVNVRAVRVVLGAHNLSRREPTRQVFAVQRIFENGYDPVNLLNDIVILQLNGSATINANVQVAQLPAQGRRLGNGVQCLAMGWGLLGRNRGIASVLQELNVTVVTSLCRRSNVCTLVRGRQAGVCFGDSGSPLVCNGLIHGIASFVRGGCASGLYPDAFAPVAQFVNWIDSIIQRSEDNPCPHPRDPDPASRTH
Kind of experiment: Human Neutrophil Elastase Quenched-FRET Assay. It counts as biochemical. The following applies: read-out: Inhibition of Human Neutrophil Elastase IC50. How it is done:
Human Neutrophil Elastase Quenched-FRET Assay
The assay uses Human Neutrophil Elastase (HNE) purified from serum (Calbiochem art. 324681; Ref. Baugh, R J. et al., 1976, Biochemistry. 15, 836-841). HNB was stored in 50 mM NaOAc, 200 mM NaCl, pH 5.5 with added 30% glycerol at −20° C. The protease substrate used was Elastase Substrate V Fluorogenic, MeOSuc-AAPV-AMC (Calbiochem art. 324740; Ref. Castillo, M. J. et al., 1979, Anal. Biochem. 99, 53-64). The substrate was stored in DMSO at −20° C. The assay additions were as follows: Test compounds and controls were added to black 96-well flat-bottom plates (Greiner 655076), 1 μL in 100% DMSO, followed by 30 μL HNE in assay buffer with 0.01% TritonX-100. The assay buffer constitution was: 100 mM Tris (pH 7.5) and 500 mM NaCl. The enzyme and the compounds were incubated at room temperature for 15 minutes. Then 30 μl substrate in assay buffer was added The assay was stopped after 30 minutes incubation at room temperature by adding 60 μl stop solution (140 mM acetic acid, 200 mM sodium monochloroacetate, 60 mM sodium acetate, pH 4.3). Fluorescence was measured on a Wallac 1420 Victor 2 instrument at settings: Exitation 380 nm, Emission 460 nm. IC50 values were determined using xlfit curve fitting using model 205.

For `COc1ccc(CNC(=O)c2ccc(C)n(-c3cccc(Br)c3)c2=O)cc1` [1-(3-Bromophenyl)-N-(4-methoxybenzyl)-6-methyl-2-oxo-1,2-dihydropyridine-3-carboxamide], the 50% inhibitory concentration (IC50) (usually the concentration needed to halve the response being measured) was 353 nM. The result for `COc1cccc(CNC(=O)c2ccc(C)n(-c3cccc(C(F)(F)F)c3)c2=O)c1OC` [N-(2,3-Dimethoxybenzyl)-6-methyl-2-oxo-1-[3-(trifluoromethyl)phenyl]-1,2-dihydropyridine-3-carboxamide] reads 701 nM; that for `O=C(NCc1ccc2c(c1)CCO2)c1c[nH]c(=O)n(-c2cccc(C(F)(F)F)c2)c1=O` [N-(2,3-Dihydro-1-benzofuran-5-ylmethyl)-2,4-dioxo-3-[3-(trifluoromethyl)phenyl]-1,2,3,4-tetrahydropyrimidine-5-carboxamide], 2030 nM; that for `Cc1cc(CNC(=O)c2ccc(C)n(-c3cccc(C(F)(F)F)c3)c2=O)no1` [6-Methyl-N-[(5-methylisoxazol-3-yl)methyl]-2-oxo-1-[3-(trifluoromethyl)phenyl]-1,2-dihydropyridine-3-carboxamide], 318 nM.
